Consider eleven compounds from patent US20140135310A1, “SULPHONAMIDE DERIVATIVES OF ALICYCLIC AMINES FOR THE TREATMENT OF CENTRAL NERVOUS SYSTEM DISEASES” (Adamed Sp. z o.o., priority 2011, published 2014).

Each structure is given as a SMILES string.

Assay [1] concerns the target T1, 5-HT2C receptor (Homo sapiens, UniProt P28335).
T1 construct: expressed in transfected cells; host or cells: HEK-293 cells
T1 sequence (P28335 33-458): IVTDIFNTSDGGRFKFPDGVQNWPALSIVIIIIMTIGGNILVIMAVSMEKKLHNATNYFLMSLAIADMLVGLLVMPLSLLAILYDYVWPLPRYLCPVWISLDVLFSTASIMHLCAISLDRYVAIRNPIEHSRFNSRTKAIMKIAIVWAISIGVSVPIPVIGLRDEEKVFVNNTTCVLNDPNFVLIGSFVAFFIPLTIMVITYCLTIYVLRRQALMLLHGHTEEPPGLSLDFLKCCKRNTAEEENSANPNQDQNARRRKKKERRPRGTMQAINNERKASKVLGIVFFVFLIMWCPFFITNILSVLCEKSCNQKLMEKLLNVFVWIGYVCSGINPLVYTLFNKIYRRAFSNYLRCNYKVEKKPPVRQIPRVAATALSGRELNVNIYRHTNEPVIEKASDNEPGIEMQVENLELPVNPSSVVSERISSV
The assay is described as follows: Radioligand binding assay, serotoninergic 5-HT2C receptors. As to conditions: test compound 1×10^−6 M.

The target of assay [2] is T2, 5-HT1A receptor (rat hippocampus) (Rattus norvegicus, UniProt P19327).
T2 construct: hippocampus; from tissue; host or cells: rat hippocampus
T2 sequence (P19327 1-422): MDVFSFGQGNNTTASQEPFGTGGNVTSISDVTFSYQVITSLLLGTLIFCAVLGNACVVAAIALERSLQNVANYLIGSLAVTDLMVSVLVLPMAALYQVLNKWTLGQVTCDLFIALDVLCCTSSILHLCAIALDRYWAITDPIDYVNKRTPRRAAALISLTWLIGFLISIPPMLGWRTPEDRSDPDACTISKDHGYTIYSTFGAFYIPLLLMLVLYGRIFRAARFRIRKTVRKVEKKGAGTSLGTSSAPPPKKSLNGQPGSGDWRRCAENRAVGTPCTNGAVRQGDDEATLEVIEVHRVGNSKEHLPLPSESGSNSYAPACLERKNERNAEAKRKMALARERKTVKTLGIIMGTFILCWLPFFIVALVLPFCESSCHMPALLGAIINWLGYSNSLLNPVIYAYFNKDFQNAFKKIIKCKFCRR
As to the kind of experiment: Radioligand binding assay, serotoninergic 5-HT1A receptors.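 Also: test compound at 1 µM.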 As to conditions: binding assay result in %, Table 5a.

Assay [3] relates to σ receptors. As to the kind of experiment: Radioligand binding assay, σ receptors. As to conditions: rat cerebral cortex, [3H]DTG 8 nM. The procedure, abridged: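 Values derive from radioligand displacement, with non-specific binding defined by excess cold ligand and detection by scintillation. Hill-fit IC50s were converted to Ki via Cheng-Prusoff using Scatchard-derived Kd; percent inhibition of control specific binding also reported.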

The target in assay [4] is T3, M3 muscarinic receptors (Homo sapiens, UniProt P20309).
T3 construct: expressed in transfected cells; host or cells: CHO cells
T3 sequence (P20309 whole entry): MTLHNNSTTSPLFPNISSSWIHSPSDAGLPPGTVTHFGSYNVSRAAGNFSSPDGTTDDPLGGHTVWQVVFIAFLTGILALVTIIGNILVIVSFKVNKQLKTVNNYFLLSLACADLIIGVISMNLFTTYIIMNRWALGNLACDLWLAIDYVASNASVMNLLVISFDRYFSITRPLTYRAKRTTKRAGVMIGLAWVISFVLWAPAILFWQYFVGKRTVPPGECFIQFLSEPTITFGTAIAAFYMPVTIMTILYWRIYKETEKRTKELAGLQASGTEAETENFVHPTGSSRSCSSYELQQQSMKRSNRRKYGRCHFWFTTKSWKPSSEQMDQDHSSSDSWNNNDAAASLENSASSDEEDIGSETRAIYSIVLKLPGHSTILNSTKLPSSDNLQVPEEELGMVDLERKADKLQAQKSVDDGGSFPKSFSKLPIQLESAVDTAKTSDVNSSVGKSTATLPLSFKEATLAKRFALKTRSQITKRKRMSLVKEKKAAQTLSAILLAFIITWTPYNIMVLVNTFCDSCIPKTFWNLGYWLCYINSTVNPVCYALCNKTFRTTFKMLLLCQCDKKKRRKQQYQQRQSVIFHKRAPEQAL
As to the kind of experiment: Radioligand binding assay, muscarinic M3 receptors. As to conditions: test compound 1×10^−6 M. The procedure, abridged:
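Radioligand competition binding, detected by scintillation counting; non-specific binding defined with excess unlabelled ligand. Results given as % inhibition of control specific binding; IC50 from Hill-equation fit of competition curves, Ki via Cheng-Prusoff with radioligand KD from Scatchard plot.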

Assay [5] has as its target T4, receptors D4.4 (Homo sapiens, UniProt P21917).
T4 sequence (P21917 1-419): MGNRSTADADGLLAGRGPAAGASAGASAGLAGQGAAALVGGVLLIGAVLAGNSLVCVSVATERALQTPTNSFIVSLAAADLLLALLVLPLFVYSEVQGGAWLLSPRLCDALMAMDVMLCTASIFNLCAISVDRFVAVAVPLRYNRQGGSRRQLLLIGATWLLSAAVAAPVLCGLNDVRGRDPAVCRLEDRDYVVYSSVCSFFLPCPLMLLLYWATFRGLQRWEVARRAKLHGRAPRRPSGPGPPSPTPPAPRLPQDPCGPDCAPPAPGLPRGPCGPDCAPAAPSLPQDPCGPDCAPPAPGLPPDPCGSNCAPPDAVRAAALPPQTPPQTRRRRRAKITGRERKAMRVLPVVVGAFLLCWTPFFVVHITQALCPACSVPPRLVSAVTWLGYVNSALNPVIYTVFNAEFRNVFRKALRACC
The assay is described as follows: Radioligand binding assay, dopaminergic D4 (D4.4) receptors. As to conditions: test compound 1×10^−6 M. A digest of the protocol: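 Competition radioligand binding at human D2, D3 and D4.4 receptors, detected by scintillation counting; nonspecific binding defined with excess unlabelled ligand. Results as percent inhibition of control specific binding; IC50 by Hill-equation nonlinear regression; Ki via Cheng-Prusoff, with radioligand KD from Scatchard plot.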

The target of assay [6] is T5, H1 histaminergic receptors (Homo sapiens, UniProt P35367).
T5 construct: expressed in transfected cells; host or cells: HEK-293 cells
T5 sequence (P35367 whole entry): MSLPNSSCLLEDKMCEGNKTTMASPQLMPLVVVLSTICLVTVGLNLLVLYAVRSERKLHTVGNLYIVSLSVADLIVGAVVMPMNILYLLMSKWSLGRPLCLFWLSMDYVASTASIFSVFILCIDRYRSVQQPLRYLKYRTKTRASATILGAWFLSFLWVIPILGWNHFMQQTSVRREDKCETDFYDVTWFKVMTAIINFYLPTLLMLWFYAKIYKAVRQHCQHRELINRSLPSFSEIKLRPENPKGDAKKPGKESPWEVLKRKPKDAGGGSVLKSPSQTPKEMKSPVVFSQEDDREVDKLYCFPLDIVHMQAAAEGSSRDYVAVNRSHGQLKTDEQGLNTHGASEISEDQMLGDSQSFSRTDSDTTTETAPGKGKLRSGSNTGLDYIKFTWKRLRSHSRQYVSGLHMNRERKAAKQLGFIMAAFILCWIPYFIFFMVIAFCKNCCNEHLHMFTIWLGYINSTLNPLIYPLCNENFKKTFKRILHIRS
As to the kind of experiment: Radioligand binding assay, histaminergic H1 receptors. As to conditions: human recombinant (HEK-293 cells), [3H]pyrilamine 1 nM. The procedure, abridged:
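Competition binding at human H1 receptors; specific binding taken as total minus non-specific binding in excess unlabelled ligand, scintillation read-out. IC50 from Hill-equation fit of competition curves; Ki by Cheng-Prusoff using radioligand concentration and Kd (from Scatchard plot).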

With `O=S(=O)(NCC1CN(CCOc2cccc3ccccc23)C1)c1ccc2ccccc2c1` [Compound 122, N-[[1-[2-(1-Naphthyloxy)ethyl]azetidin-3-yl]methyl]naphthalene-2-sulphonamide], the inhibition at 1 µM was 98% in assay [1], 99% in assay [2], 30% in assay [4] and 63% in assay [5]. The “σ [%]” value in assay [3] was found to be 81%.

Take `O=S(=O)(NCC1CN(CCCc2noc3cc(F)ccc23)C1)c1cccc2ccccc12` [Compound 133, N-[[1-[3-(6-Fluoro-1,2-benzoxazol-3-yl)propyl]azetidin-3-yl]methyl]-naphthalene-1-sulphonamide]: the inhibition at 1 µM in assay [1] came to 47%; in assay [6], 58%; in assay [2], 52%; in assay [4], 17%; in assay [5], 88%. Further, in assay [3], the “σ [%]” value is listed as 93%.

As for `O=S(=O)(NCC1CCN(CCOc2cccc3ccccc23)C1)c1ccc2ccccc2c1` (stereo not drawn) [Compound 124, N-[[1-[2-(1-Naphthyloxy)ethyl]pyrrolidin-3-yl]methyl]naphthalene-2-sulphonamide], the inhibition at 1 µM in assay [1] is 80%; in assay [2], 99%; in assay [4], 49%; in assay [5], 54%. For the same compound, the “σ [%]” value in assay [3] worked out at 82%.

With `O=S(=O)(NCC1CN(CCCc2noc3cc(F)ccc23)C1)c1ccc2scnc2c1` [Compound 132, N-[[1-[3-(6-Fluoro-1,2-benzoxazol-3-yl)propyl]azetidin-3-yl]methyl]-1,3-benzothiazole-5-sulphonamide], the inhibition at 1 µM in assay [1] was 43%; in assay [6] it was 33%; in assay [2], 57%; in assay [4], 10%; in assay [5], 39%. Further, the “σ [%]” value in assay [3] worked out at 80%.

`Cc1cccc(S(=O)(=O)NC2CCN(CCCc3c[nH]c4ccc(Cl)cc34)C2)c1` (stereo not drawn) [Compound 86, N-[1-[3-(5-chloro-1H-indol-3-yl)propyl]pyrrolidin-3-yl]-3-methyl-benzenesulphonamide]: the inhibition at 1 µM is 70% in assay [6], 101% in assay [2], 1% in assay [4] and 88% in assay [5]. Also, in assay [3], the “σ [%]” value was found to be 65%.

Take `CC1(C)Cc2cccc(OCCN3CCC(NS(=O)(=O)c4ccc5ccccc5c4)C3)c2O1` (stereo not drawn) [Compound 108, N-[1-[2-[(2,2-Dimethyl-3H-benzofuran-7-yl)oxy]ethyl]pyrrolidin-3-yl]naphthalene-2-sulphonamide]: the inhibition at 1 µM was 23% in assay [6], 98% in assay [2], -4% in assay [4] and 85% in assay [5]. Besides, in assay [3], the “σ [%]” value came out at 45%.

Take `Cc1c(S(=O)(=O)NCC2CN(CCCc3noc4cc(F)ccc34)C2)sc2ccc(Cl)cc12` [Compound 131, 5-Chloro-N-[[1-[3-(6-fluoro-1,2-benzoxazol-3-yl)propyl]azetidin-3-yl]-methyl]-3-methyl-benzothiophene-2-sulphonamide]: the inhibition at 1 µM came out at 88% in assay [1]; 51% in assay [6]; 87% in assay [2]; 17% in assay [4]; 50% in assay [5]. Moreover, the “σ [%]” value in assay [3] was 92%.

In the case of `Cc1c(S(=O)(=O)NCC2CN(CCCc3noc4cc(F)ccc34)C2)sc2ccc(F)cc12` [Compound 130, 5-Fluoro-N-[[1-[3-(6-fluoro-1,2-benzoxazol-3-yl)propyl]azetidin-3-yl]methyl]-3-methyl-benzothiophene-2-sulphonamide], the inhibition at 1 µM in assay [1] stood at 89%; in assay [6] it was 51%; in assay [2] it was 85%; in assay [4] it was 15%; in assay [5] it was 67%. In assay [3], the “σ [%]” value is recorded as 94%.

Consider `CC1(C)Cc2cccc(OCCN3CCC(NS(=O)(=O)c4cccc(O)c4)C3)c2O1` (stereo not drawn) [Compound 107, N-[1-[2-[(2,2-Dimethyl-3H-benzofuran-7-yl)oxy]ethyl]pyrrolidin-3-yl]-3-hydroxybenzenesulphonamide], for which the inhibition at 1 µM in assay [1] is 86%; in assay [6], 30%; in assay [2], 100%; in assay [4], 8%; in assay [5], 83%. Also, the “σ [%]” value in assay [3] came out at 47%.

Regarding `O=S(=O)(NC1CCN(CCOc2cccc3ccccc23)C1)c1ccc2ccccc2c1` (stereo not drawn) [Compound 116, N-[1-[2-(1-Naphthyloxy)ethyl]pyrrolidin-3-yl]naphthalene-2-sulphonamide], the inhibition at 1 µM in assay [2] stood at 99%; in assay [4], 9%; in assay [5], 64%. Further, in assay [3], the “σ [%]” value is 56%.

For the compound `O=S(=O)(NCC1CN(CCCc2noc3cc(F)ccc23)C1)c1ccc2ccccc2c1` [Compound 134, N-[[1-[3-(6-Fluoro-1,2-benzoxazol-3-yl)propyl]azetidin-3-yl]methyl]-naphthalene-2-sulphonamide], the inhibition at 1 µM in assay [1] is 87%; in assay [6], 45%; in assay [2], 73%; in assay [4], 34%; in assay [5], 77%. In addition, the “σ [%]” value in assay [3] is 88%.

One may read the inhibition as the drop in the measured response relative to a control, in per cent.
